Test [1] concerns the target T1, Cb-cParM (Clostridium botulinum, UniProt A0A9Y2YAC8).
T1 construct: gene EXN02_10840
The following applies: polymerised with 3 mM ATP, 30 min; Mg2+; pH 7.5; 25 °C; nucleotide hydrolysed to ADP in the filament.

In test [2] the target is T2, Dh-cParM1 (Desulfitobacterium hafniense, UniProt Q24VP4).
T2 sequence (Q24VP4 1-369): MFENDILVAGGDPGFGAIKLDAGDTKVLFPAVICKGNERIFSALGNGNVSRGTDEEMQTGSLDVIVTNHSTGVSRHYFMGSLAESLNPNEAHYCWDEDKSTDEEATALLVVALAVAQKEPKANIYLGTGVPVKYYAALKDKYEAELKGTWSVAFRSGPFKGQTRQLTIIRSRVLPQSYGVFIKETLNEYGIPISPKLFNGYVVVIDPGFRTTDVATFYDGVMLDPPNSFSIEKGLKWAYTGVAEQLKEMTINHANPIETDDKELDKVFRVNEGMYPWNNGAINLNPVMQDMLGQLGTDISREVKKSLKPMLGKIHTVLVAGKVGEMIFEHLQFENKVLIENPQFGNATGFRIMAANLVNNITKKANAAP
The experiment in a line: cryo-EM structure of filament ([…] A). It is filed as binding. Details: gene DSY2109; synthetic gene, N- or C-side 8xHis tag with HRV 3C site, tag cut; E. coli BL21(DE3); polymerises into helical filaments. The following applies: polymerised with 5 mM ATP; 40 mM HEPES pH 7.5, 400 mM KCl, 1 mM MgCl2; nucleotide state not unambiguous, ADP fits better.

In test [3] the target is T2, Dh-cParM1. The arrangement: gene DSY2109. The following applies: 5 mM nucleotide (sedimentation); pH 7.5, Mg2+, 24 °C.
Test [4] deals with T1, Cb-cParM. The following applies: polymerised with 3 mM GTP, 30 min, class 1; Mg2+; pH 7.5; 25 °C; nucleotide hydrolysed to GDP in the filament.
Test [5] addresses T1, Cb-cParM. The following applies: class 2 (30 min) and 1 min with 3 mM GTP; Mg2+; pH 7.5; 25 °C; low resolution, nucleotide likely GTP or GDP-Pi.
Test [6] has as its target T2, Dh-cParM1. In words: polymerisation by sedimentation, EM. The conditions noted are these: 5 mM nucleotide (sedimentation); pH 7.5, Mg2+, 24 °C. Details: gene DSY2109; synthetic gene, N- or C-side 8xHis tag with HRV 3C site, tag cut; E. coli BL21(DE3); polymerises into helical filaments. It is filed as binding.
The target of test [7] is Dh-cParM1, chromosome-encoded ParM of the Desulfitobacterium hafniense Y51 Dh-cParMR-1 cassette (Desulfitobacterium hafniense Y51). In words: co-sedimentation.

Values joined by “and” are separate entries in the source; they are usually repeats but may differ in a detail not shown here. Identical values can stand only once.

T1 sequence (A0A9Y2YAC8 1-285): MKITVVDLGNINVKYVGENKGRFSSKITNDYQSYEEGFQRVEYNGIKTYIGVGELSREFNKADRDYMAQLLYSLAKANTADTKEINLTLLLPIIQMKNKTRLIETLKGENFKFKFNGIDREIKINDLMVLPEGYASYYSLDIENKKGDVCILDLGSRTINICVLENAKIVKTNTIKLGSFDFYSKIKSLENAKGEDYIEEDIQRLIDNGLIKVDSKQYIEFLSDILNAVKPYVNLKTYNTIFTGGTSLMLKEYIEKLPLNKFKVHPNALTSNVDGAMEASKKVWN

Consider `Nc1ncnc2c1ncn2[C@@H]1O[C@H](COP(=O)(O)OP(=O)(O)O)[C@@H](O)[C@H]1O` [ADP], for which the “cryo-EM structure of filament (3.9 A)” value in test [1] was “indicating that the bound nucleotides had been hydrolyzed to ADP and GDP, respectively”. For the same molecule, the “cryo-EM structure of filament (4.0 A)” value in test [2] is on record as “ADP appears to fit better into the cryoEM density map than ATP”. On to `Nc1ncnc2c1ncn2[C@@H]1O[C@H](COP(=O)(O)OP(=O)(O)OP(=O)(O)O)[C@@H](O)[C@H]1O` [ATP], for which, in test [3], the “polymerisation by light scattering, sedimentation, EM” value is recorded as “Dh-cParM1 polymerization induced by ATP was followed by light scattering”. Take `Nc1nc2c(ncn2[C@@H]2O[C@H](COP(=O)(O)OP(=O)(O)O)[C@@H](O)[C@H]2O)c(=O)[nH]1` [GDP]: the “cryo-EM structure of filament (3.5 A)” value in test [4] was “indicating that the bound nucleotides had been hydrolyzed to ADP and GDP, respectively”. As for `Nc1nc2c(ncn2[C@@H]2O[C@H](COP(=O)(O)OP(=O)(O)OP(=O)(O)O)[C@@H](O)[C@H]2O)c(=O)[nH]1` [GTP], the “cryo-EM structure of filament (6.5 A and 8.6 A); Pi release also measured” value in test [5] was “suggesting that they were in the state before the phosphate release”. Moreover, the “polymerisation by sedimentation, EM” value in test [6] was “Filaments were induced by the addition of ATP, GTP, and non-hydrolysable nucleotides”. Regarding “Dh-cParM1, chromosome-encoded ParM of the Desulfitobacterium hafniense Y51 Dh-cParMR-1 cassette (natural protein)”, the residual concentration in the supernatants (compared with a critical concentration) in test [7] was 4 µM and 5 µM.
